In publication PMC12517324, “Hyperagonism of a Vitamin D Receptor Agonist/Histone Deacetylase Inhibitor Hybrid Molecule” (Journal of Medicinal Chemistry, 2025):
Values belong to the molecule of their own block, whether it stands above or below them.

What was measured:
B16–F10 cells = experiment: RNaseq gene expression profiling; format: cell-based, mouse; conditions: 100 nM, 24 h;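 for logFC Cck: Hybrid compounds tested at 10 µM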;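 for logFC Cited1: Hybrid compounds tested at 10 µM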
Description: AC-340 superinduced CYP24A1 expression in all cell lines tested, and ZG-126 appeared to be a hyperagonist in SK-MEL-28 cells. […] AC-340 treatment produced 3 times more differentially expressed genes (DEGs) than AM-193, with ZG-126 producing an intermediate number (Figure A). […] The varying effects of each treatment on the numbers of regulated genes and the fold changes observed are reflected in plots of log-fold changes and volcano plots (Figure S3B).
A quality control was performed before sequencing in paired-end at 50 M reads by Illumina NovaSeq 6000 S4 PE100. After sequencing, the FASTQ files were sent to us and all downstream analysis were performed on Galaxy (Galaxy (usegalaxy.org)). First, trimmomatic tool was used to remove the adapters from the reads. Then, using the alignment tool, HISAT2, the reads were mapped to the mouse genome. In the next step, the counted reads were annotated and finally the list of differentially expressed genes (DEGs) for each treatment was obtained using the preinstalled R package called Limma.

[1] = target: T1, zebrafish vitamin D receptor ligand binding domain (zVDR LBD, 156-453) (zebrafish, UniProt Q9PTN2 156-453); experiment: crystal structure; zVDR LBD (3-7 mg/mL) incubated with a 2-fold excess of ligand AC-340 and a 3-fold excess of the NCoA2 NR2 peptide; crystals at 293 K in Na2 tartrate 1.1 M, MgCl2 0.2 M, Hepes 0.1 M pH 7.5; one LBD complex per asymmetric unit; refined to 2.1 Å; conditions: both partners purified
T1 construct: Cloned into pET28b; the His tag was removed by thrombin, so residues of the vector may remain at the end; The crystal also holds the small molecule AC-340; also called zebrafish VDR; source: Escherichia coli BL21 DE3, purified (Ni Hitrap FF crude column, thrombin cleavage, size exclusion on HiLoad Superdex 75)
T1 sequence (looked up): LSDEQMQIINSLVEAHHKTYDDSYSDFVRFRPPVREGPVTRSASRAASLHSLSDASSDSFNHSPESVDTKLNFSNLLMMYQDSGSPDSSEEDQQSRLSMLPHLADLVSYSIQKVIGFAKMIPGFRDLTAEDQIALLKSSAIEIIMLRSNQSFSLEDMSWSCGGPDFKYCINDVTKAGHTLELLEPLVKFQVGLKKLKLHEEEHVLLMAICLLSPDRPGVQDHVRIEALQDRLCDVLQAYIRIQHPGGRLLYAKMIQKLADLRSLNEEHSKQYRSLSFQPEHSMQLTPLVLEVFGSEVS

Molecule: O=C(CCCCCCC(=O)Nc1ccccc1)NO [SAHA, suberoylanilide hydroxamic acid]
- logFC 1500009L16Rik (B16–F10 cells): 0.7062
- logFC Abca13 (B16–F10 cells): 0.7574
- logFC Adam19 (B16–F10 cells): 0.5841
- logFC Adamts7 (B16–F10 cells): 1.124
- logFC Adamts14 (B16–F10 cells): 1.217
- logFC Ank3 (B16–F10 cells): 0.7456
- logFC Apbb1 (B16–F10 cells): 0.8022
- logFC Atcay (B16–F10 cells): 1.535
- logFC Atp1b2 (B16–F10 cells): 0.7178
- logFC Atp2b4 (B16–F10 cells): 0.9179
- logFC Bcan (B16–F10 cells): 0.5824
- logFC Btn1a1 (B16–F10 cells): 2.439
- logFC C1qtnf1 (B16–F10 cells): 1.607
- logFC C1s1 (B16–F10 cells): 0.9877
- logFC Card10 (B16–F10 cells): 0.6233
- logFC Cck (B16–F10 cells): -0.6184
- logFC Ccl2 (B16–F10 cells): 0.7906
- logFC Chn1 (B16–F10 cells): 0.6625
- logFC Cited1 (B16–F10 cells): -0.5815
- logFC Clcnka (B16–F10 cells): 1.628
- logFC Clu (B16–F10 cells): 0.9236
- logFC Col1a1 (B16–F10 cells): 1.702
- logFC Cpm (B16–F10 cells): 0.8993
- logFC Crip1 (B16–F10 cells): 0.7228
- logFC Crmp1 (B16–F10 cells): 0.7266
- logFC Csdc2 (B16–F10 cells): 1.013
- logFC Dock10 (B16–F10 cells): 0.6896
- logFC Egfl7 (B16–F10 cells): 0.5994
- logFC Elovl4 (B16–F10 cells): 0.6542
- logFC Enpp1 (B16–F10 cells): 0.7446
- logFC Enpp3 (B16–F10 cells): 0.9035
- logFC Entpd2 (B16–F10 cells): 0.9577
- logFC Fam131b (B16–F10 cells): 1.153
- logFC Fbxo41 (B16–F10 cells): 0.8175
- logFC Fstl1 (B16–F10 cells): 1.348
- logFC Gli1 (B16–F10 cells): 1.843
- logFC Glipr2 (B16–F10 cells): 0.8149
- logFC Gpr162 (B16–F10 cells): 0.6749
- logFC Gsdmc (B16–F10 cells): 0.6713
- logFC Gstt1 (B16–F10 cells): 1.731
- logFC Hoxb9 (B16–F10 cells): 0.9565
- logFC Itga8 (B16–F10 cells): 0.6392
- logFC Jam2 (B16–F10 cells): 0.5927
- logFC Kcnh2 (B16–F10 cells): 1.1509
- logFC Kcnt1 (B16–F10 cells): 2.101
- logFC Kdelr3 (B16–F10 cells): 0.5979
- logFC Klrg2 (B16–F10 cells): 0.6093
- logFC Loxl4 (B16–F10 cells): 0.8565
- logFC Lrp11 (B16–F10 cells): 0.65
- logFC Lrrc75b (B16–F10 cells): 1.006
- logFC Ltbp4 (B16–F10 cells): 1.299
- logFC Map2 (B16–F10 cells): 0.5974
- logFC Mgat3 (B16–F10 cells): 0.5859
- logFC Mmp11 (B16–F10 cells): 0.7246
- logFC Mmp17 (B16–F10 cells): 1.252
- logFC Mogat2 (B16–F10 cells): 0.5856
- logFC Myl9 (B16–F10 cells): 0.6886
- logFC Nacad (B16–F10 cells): 0.9826
- logFC Ndrg4 (B16–F10 cells): 0.8254
- logFC Neurl1a (B16–F10 cells): 0.5887
- logFC Notch1 (B16–F10 cells): 0.8121
- logFC Palld (B16–F10 cells): 0.5874
- logFC Pcdh17 (B16–F10 cells): 0.6033
- logFC Pdgfra (B16–F10 cells): 1.16
- logFC Plat (B16–F10 cells): 0.5899
- logFC Plppr2 (B16–F10 cells): 0.641
- logFC Plppr3 (B16–F10 cells): 0.7184
- logFC Pmm1 (B16–F10 cells): 0.5873
- logFC Ppm1j (B16–F10 cells): 0.9349
- logFC Prelp (B16–F10 cells): 0.6949
- logFC Prnd (B16–F10 cells): 0.9638
- logFC Prph (B16–F10 cells): 1.113
- logFC Ptgs1 (B16–F10 cells): 0.7769
- logFC Rab7b (B16–F10 cells): 1.164
- logFC Rasa4 (B16–F10 cells): 1.171
- logFC Rcn3 (B16–F10 cells): 0.5908
- logFC Reep6 (B16–F10 cells): 0.6217
- logFC Rflnb (B16–F10 cells): 0.6241
- logFC Rhpn2 (B16–F10 cells): 0.7266
- logFC Rtn2 (B16–F10 cells): 0.735
- logFC Rtn4rl2 (B16–F10 cells): 1.53
- logFC Rundc3a (B16–F10 cells): 0.8211
- logFC S100a6 (B16–F10 cells): 0.8372
- logFC Scube3 (B16–F10 cells): 0.7375
- logFC Septin4 (B16–F10 cells): 0.8607
- logFC Septin5 (B16–F10 cells): 1.1153
- logFC Spn (B16–F10 cells): 1.292
- logFC Sptbn2 (B16–F10 cells): -0.6313
- logFC Stum (B16–F10 cells): 0.9146
- logFC Syt3 (B16–F10 cells): 1.3692
- logFC Syt7 (B16–F10 cells): 0.603
- logFC Tagln2 (B16–F10 cells): 0.7428
- logFC Tgm2 (B16–F10 cells): 1.1319
- logFC Thbs3 (B16–F10 cells): 0.7215
- logFC Tlr1 (B16–F10 cells): 0.6918
- logFC Trim47 (B16–F10 cells): 0.6166
- logFC Trnp1 (B16–F10 cells): 0.6142
- logFC Uchl1 (B16–F10 cells): 0.7608
- logFC Vash1 (B16–F10 cells): 0.6486
- logFC Vdr (B16–F10 cells): 1.045
- logFC Wfdc1 (B16–F10 cells): 0.7568
- logFC Wnt6 (B16–F10 cells): 1.4553

- binding result [1]: binds
Molecule: KHKILHRLLQDSS (also called NCoA2 peptide) [coactivator NCoA2 NR2 peptide (human nuclear receptor coactivator 2, second NR box)]
